Measurements as given in PubChem BioAssay AID256 (DTP/NCI, 2004).
Toxic doses and inconclusive results are not listed. Rule for the calls: active = survival T/C of 150% or more; inactive = T/C below 125% in these data.

Test system: CD2F1 mice, L1210 leukemia ip, survival T/C
Test: NCI In Vivo Anticancer Drug Screen. Data for tumor model L1210 Leukemia (intraperitoneal) in CD2F1 (CDF1) mice
Settings: higher = longer survival
In short: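 Vehicle-treated tumor-bearing mice served as controls (C) for compound-treated mice (T). Reported figure is T divided by C.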

[1] = endpoint: mean survival time, dose: 25.0 mg/kg/injection, schedule: Q01DX009 (ip), vehicle: water
[2] = endpoint: mean survival time, dose: 50.0 mg/kg/injection, schedule: Q01DX009 (ip), vehicle: water
[3] = endpoint: mean survival time, dose: 100.0 mg/kg/injection, schedule: Q01DX009 (ip), vehicle: water
[4] = endpoint: mean survival time, dose: 100.0 mg/kg/injection, schedule: Q01DX009 (ip), vehicle: saline with Tween-80
[5] = endpoint: mean survival time, dose: 200.0 mg/kg/injection, schedule: Q01DX009 (ip), vehicle: saline with Tween-80
[6] = endpoint: mean survival time, dose: 100.0 mg/kg/injection, schedule: Q04DX003 (ip), vehicle: saline with Tween-80
[7] = endpoint: mean survival time, dose: 200.0 mg/kg/injection, schedule: Q04DX003 (ip), vehicle: saline with Tween-80
[8] = endpoint: mean survival time, dose: 100.0 mg/kg/injection, schedule: Q04DX003 (ip), vehicle: saline
[9] = endpoint: mean survival time, dose: 100.0 mg/kg/injection, schedule: Q01DX001 (ip), vehicle: saline with Tween-80
[10] = endpoint: mean survival time, dose: 200.0 mg/kg/injection, schedule: Q01DX001 (ip), vehicle: saline with Tween-80
[11] = endpoint: mean survival time, dose: 50.0 mg/kg/injection, schedule: Q01DX009 (ip), vehicle: saline with Tween-80
[12] = endpoint: mean survival time, dose: 100.0 mg/kg/injection, schedule: Q04DX002 (ip), vehicle: saline with Tween-80
[13] = endpoint: mean survival time, dose: 200.0 mg/kg/injection, schedule: Q04DX002 (ip), vehicle: saline with Tween-80
[14] = endpoint: mean survival time, dose: 400.0 mg/kg/injection, schedule: Q04DX002 (ip), vehicle: saline with Tween-80

Measured: T/C

CCOC(=O)S(=O)(=O)c1ccc(C)cc1
inactive: endpoint: mean survival time, dose: 100.0 mg/kg/injection, schedule: Q01DX009 (ip), vehicle: acetone 101 % of control | endpoint: mean survival time, dose: 200.0 mg/kg/injection, schedule: Q01DX009 (ip), vehicle: acetone 109 % of control | endpoint: mean survival time, dose: 400.0 mg/kg/injection, schedule: Q01DX009 (ip), vehicle: acetone 114 % of control

Cc1ccc(C(=O)N/N=C/C(=O)O)cc1
inactive: [1] 102 % of control | [2] 95 % of control | [3] 102 % of control | endpoint: mean survival time, dose: 200.0 mg/kg/injection, schedule: Q01DX009 (ip), vehicle: water 95 % of control

O=[N+]([O-])c1cc(Cl)ccc1O
inactive: [4] 93 % of control | [5] 90 % of control

O=[N+]([O-])O.S=C([SH2+])[n+]1ccccc1.S=C([SH2+])[n+]1ccccc1.[NH-]C1CCCCC1[NH-].[Pt+4]
inactive: endpoint: median survival time, dose: 3.12 mg/kg/injection, schedule: Q04DX003 (ip), vehicle: saline 101 % of control | endpoint: median survival time, dose: 6.25 mg/kg/injection, schedule: Q04DX003 (ip), vehicle: saline 109 % of control | endpoint: median survival time, dose: 12.5 mg/kg/injection, schedule: Q04DX003 (ip), vehicle: saline 100 % of control | endpoint: median survival time, dose: 25.0 mg/kg/injection, schedule: Q04DX003 (ip), vehicle: saline 90 % of control | endpoint: median survival time, dose: 50.0 mg/kg/injection, schedule: Q04DX003 (ip), vehicle: saline 95 % of control | endpoint: median survival time, dose: 100.0 mg/kg/injection, schedule: Q04DX003 (ip), vehicle: saline 106 % of control | endpoint: median survival time, dose: 200.0 mg/kg/injection, schedule: Q04DX003 (ip), vehicle: saline 109 % of control

O=[n+]1cc2ccccn2cc1-c1ccccc1
inactive: [4] 97 % of control | [6] 104 % of control | [5] 101 % of control | [7] 104 % of control | endpoint: mean survival time, dose: 400.0 mg/kg/injection, schedule: Q01DX009 (ip), vehicle: saline with Tween-80 101 % of control

CCOC1CC2c3ccccc3C1c1cccc[n+]12 (stereo not given)
inactive: [8] 104 % of control

O=C(Sc1cccc2ccccc12)c1ccc([N+](=O)[O-])cc1
inactive: [9] 105 % of control | [10] 92 % of control | endpoint: mean survival time, dose: 400.0 mg/kg/injection, schedule: Q01DX001 (ip), vehicle: saline with Tween-80 101 % of control

CN(CC(=O)C(C)(C)C)C1CCCCC1
inactive: [8] 91 % of control

CC(=O)Nc1cc([N+](=O)[O-])cc([N+](=O)[O-])c1O
inactive: [9] 101 % of control | [10] 98 % of control

COc1cc(OC)c(NC(=O)OCC2CCCO2)cc1Cl (stereo not given)
inactive: [11] 90 % of control | [4] 97 % of control | [5] 94 % of control

CCOC(=O)N(C)c1ccc(Cl)cc1C(N)=O
inactive: [12] 101 % of control | [13] 97 % of control | [14] 118 % of control

CCCCNC(=O)C1C=C2c3cccc4c3C(CN4)CC2N(C)C1 (stereo not given)
inactive: endpoint: mean survival time, dose: 50.0 mg/kg/injection, schedule: Q04DX003 (ip), vehicle: saline with Tween-80 88 % of control | [6] 91 % of control | [7] 96 % of control

CC(C)OC(=O)N(C(=O)OC(C)C)c1ccc(Cl)cc1
inactive: [12] 97 % of control | [13] 94 % of control | [14] 102 % of control

COc1cc(/C=N/N2CCCCC2)cc(OC)c1OC
inactive: [6] 104 % of control | [7] 95 % of control | endpoint: mean survival time, dose: 400.0 mg/kg/injection, schedule: Q04DX003 (ip), vehicle: saline with Tween-80 111 % of control

COC(=O)C1OC1(C)c1ccc(C)cc1 (stereo not given)
inactive: endpoint: mean survival time, dose: 25.0 mg/kg/injection, schedule: Q01DX009 (ip), vehicle: saline with Tween-80 89 % of control | [11] 94 % of control | [4] 93 % of control

O=C(O)/C=N/NS(=O)(=O)c1ccccc1
inactive: endpoint: mean survival time, dose: 12.5 mg/kg/injection, schedule: Q01DX009 (ip), vehicle: water 99 % of control | [1] 103 % of control | [2] 113 % of control | [3] 114 % of control
